pKd: −log10 of the molar value.
Target: T1, USP45 (Homo sapiens, UniProt Q70EL2)
T1 construct: USP45-His purified from E. coli BL21, biotinylated
T1 sequence (Q70EL2 1-814): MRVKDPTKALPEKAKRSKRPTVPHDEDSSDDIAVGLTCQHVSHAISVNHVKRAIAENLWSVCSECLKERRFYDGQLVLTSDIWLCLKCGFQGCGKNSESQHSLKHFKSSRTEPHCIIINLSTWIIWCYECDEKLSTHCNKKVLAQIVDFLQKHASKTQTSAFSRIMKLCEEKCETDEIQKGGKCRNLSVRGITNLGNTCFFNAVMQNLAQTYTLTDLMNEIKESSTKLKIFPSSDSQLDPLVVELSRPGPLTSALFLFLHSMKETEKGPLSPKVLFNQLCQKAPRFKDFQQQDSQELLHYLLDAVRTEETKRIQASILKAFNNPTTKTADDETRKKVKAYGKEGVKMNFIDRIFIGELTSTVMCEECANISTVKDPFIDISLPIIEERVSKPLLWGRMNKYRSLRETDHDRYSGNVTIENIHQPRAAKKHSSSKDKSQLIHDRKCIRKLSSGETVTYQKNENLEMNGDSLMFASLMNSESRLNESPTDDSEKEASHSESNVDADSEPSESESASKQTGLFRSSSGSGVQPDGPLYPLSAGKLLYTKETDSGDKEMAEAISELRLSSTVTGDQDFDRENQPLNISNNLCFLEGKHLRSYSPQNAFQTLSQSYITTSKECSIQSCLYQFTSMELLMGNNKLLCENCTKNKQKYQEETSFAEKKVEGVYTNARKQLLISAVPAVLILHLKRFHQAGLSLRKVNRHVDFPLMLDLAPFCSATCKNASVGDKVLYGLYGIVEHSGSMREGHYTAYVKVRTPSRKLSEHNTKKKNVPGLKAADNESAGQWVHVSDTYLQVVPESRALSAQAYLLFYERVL
Assay: BLI (OCTET K2) with purified biotinylated USP45
Format: binding

For `COc1c(O)cc2oc3cc(O)c(CC=C(C)C)c(O)c3c(=O)c2c1CC=C(C)C` [AMG, α-mangostin], the pKd was 4.71.
